The nature of data set [1]: Cytotoxicity secondary assay of screening hits. In kind it is cell-based. The note with it: screening hit. The source says:
(§1) A metastatic prostate cancer cell line, PC3M, was developed in order to screen small molecules that effectively disassemble PNCs (see Pettaway, et al., “Selection of highly metastatic variants of different human prostatic carcinomas using orthotopic implantation in nude mice,” Clin. Cancer Res., (2): 1627-36 (1996), incorporated herein in its entirety). PC3M has a […] stably express GFP-PTB (polypyrimidine track binding protein) (FIG. 1, top panels), an essential component of PNCs (see Huang, et al., “The perinucleolar compartment and transcription,” Journal of Cell Biology, (143): 35-47 (1998), incorporated herein in its entirety). Compounds able to reduce PNC prevalence by 50% were filtered in secondary assays to eliminate those that induced apoptosis, DNA damage, generic cytotoxicity, or cell-cycle blockage (see Norton, et al., “Automated high-content screening for compounds that disassemble the perinucleolar compartment,” J Biomol Screen, (14): 1045-53 (2009) and Frankowski, et al., “Discovery and Development of Small Molecules That Reduce PNC Prevalence, in Probe Reports from the NIH Molecular Libraries Program, Bethesda (Md.).(2010), incorporated herein in their entirety). The remaining hits were evaluated for invasion inhibition through MATRIGEL gelatinous protein mixture and anchorage-independent growth inhibition using soft agar assays.

Data set [2] in a line: Invasion through MATRIGEL, screening hits. Format: cell-based. The note with it: screening hit.
Description: as §1

A short description of data set [3]: Anchorage-independent growth, soft agar assay of screening hits. Format: cell-based. The note with it: screening hit.
Description: as §1

Data set [4] concerns PC3M-GFP-PTB cells. Description: PNC prevalence / PNC disassembly in PC3M-GFP-PTB cells. Format: cell-based, human. The note with it: screening hit.
Description: FIG. 1 is a graph showing the concentration-response curve against PNC prevalence in PC3M (a metastatic prostate cancer cell line)-GFP (green fluorescent protein)-PTB (polypyrimidine tract-binding protein) cells (squares, PC3M, has a PNC prevalence of 75-85% in the absence of treatment) and cytotoxicity as measured by cellular ATP (CELLTITER GLO™) (circles). Representative PTB-GFP images for cells at the indicated concentrations (arrowheads indicate PNCs) (scale bar=5 μm) are shown in the three panels above the graph. The relative signal (%) is along the y-axis and Metarrestin [log M] is along the x-axis.
as §1

The test system of data set [5] is Pol II transcription. As to the kind of experiment: Pol II transcription status: CUGBP and SC35 immunolabeling. In kind it is cell-based. The source says:
To further determine whether metarrestin interferes with Pol II transcription in general, CUGBP was immunolabeled. The steady state nuclear distribution of CUGBP, a multifunctional hnRNP protein highly enriched in the PNC, is dependent upon Pol II transcription.

In data set [6] the test system is PC3M cells. Description: PNC disassembly by biotin-metarrestin in cultured cells. The note with it: 1 μM, 24 hours (FIG. 60). Format: cell-based, human. The method, then: FIG. 60 is a set of panels showing the effectiveness of biotin-metarrestin in disassembling PNCs. The effects of metarrestin and biotin-metarrestin were compared in PC3M cells treated at 1 μM or untreated for 24 hours. Arrows indicate PNCs. Scale bar=5 μm.

Take `N=c1c2c(-c3ccccc3)c(-c3ccccc3)n(Cc3ccccc3)c2ncn1CCCO` [MLS000556915]: the Cytotoxicity entry in data set [1] is “lack of cytotoxicity”. Moreover, the Invasion entry in data set [2] is “ability to block invasion”. In addition, in data set [3], the Soft agar growth entry is listed as “soft agar growth inhibitor”. Besides, the PNC inhibition result in data set [4] was “potency as a PNC inhibitor”.

As for `CC[C@H](C)[C@@H]1NC(=O)CNC(=O)[C@@H]2Cc3c([nH]c4cc(O)ccc34)[S+]([O-])C[C@@H](NC(=O)CNC1=O)C(=O)N[C@@H](CC(N)=O)C(=O)N1C[C@H](O)C[C@H]1C(=O)N[C@@H]([C@@H](C)[C@@H](O)CO)C(=O)N2` (stereo in doubt) [α-amanitin, reference compound], in data set [5], the “Localization of CUGBP” value is “induces a localization shift to the cytoplasm” and the SC35 distribution pattern entry is “changed to isolated large dots”.

For `N=c1c2c(-c3ccccc3)c(-c3ccccc3)n(Cc3cccc(C#CCCCCNC(=O)CCCC[C@@H]4SC[C@@H]5NC(=O)N[C@@H]54)c3)c2ncn1[C@H]1CC[C@H](O)CC1` [biotin-conjugated metarrestin, N-(6-(3-((3-(trans-4-hydroxycyclohexyl)-4-imino-5,6-diphenyl-3,4-dihydro-7H-pyrrolo[2,3-d]pyrimidin-7-yl)methyl)phenyl)hex-5-yn-1-yl)-5-((3aS,4S,6aR)-2-oxohexahydro-1H-thieno[3,4-d]imidazol-4-yl)pentanamide], the “PNC disassembly in cultured cells” value in data set [6] is listed as “maintains its efficacy for PNC disassembly”.

Values taken from patent US20210186972A1, “FORMULATIONS AND METHODS FOR THE PREVENTION AND TREATMENT OF TUMOR METASTASIS AND TUMORIGENESIS” (THE UNITED STATES OF AMERICA, AS REPRESENTED BY THE …, priority 2018, published 2021).
